Data as given in patent US20230270703A1, “COMPOUNDS AND METHODS FOR THE TREATMENT OF EYE DISORDERS” (OccuRx Pty Ltd, priority 2020, published 2023).
Where two headings read alike, the source gives them in different places. One block for each compound: values may come before it.

Experiments:
[1] = Rat plasma pharmacokinetic study, single daily dose for 28 days, plasma on first day of dosing; assay type: in vivo, Sprague-Dawley rats; conditions: Sprague-Dawley, read-out: elimination half-life (converted)
Experimental: Sprague-Dawley rats were administered a single daily dose of (E)-2-[[3-methoxy-4-(difluoromethoxy)phenyl-1-oxo-2-propenyl]amino]benzoic at 25, 50 or 100 mg/kg for 28 consecutive days. Plasma was collected up to 24 hours post-dose on the first day of dosing.

[2] = Human clinical plasma pharmacokinetics, single or multiple doses of 200 mg; assay type: in vivo, humans; conditions: for Dose normalised AUC0-inf / Dose normalised Cmax / AUC(0-inf) / Cmax / Tmax / half-life: 200 mg oral; for AUC(0-inf) / Cmax / Tmax / half-life: human, plasma, po; for half-life: read-out: T ½ (converted)
Experimental: Clinical pharmacokinetic studies were also conducted on volunteers who received a single dose or multiple doses of 200 mg (E)-2-[[3-Methoxy-4-(difluoromethoxy)phenyl-1-oxo-2-propenyl]amino] benzoic acid administered as powder-in-capsule. Blood was collected 10 minutes prior to dosing, and at 15 and 30 minutes and 1, 2, 3, 4, 6, 8, 12, 24, 36, 48, 72 and 96 hours post dose into K2EDTA tubes. Samples were spun in a refrigerated centrifuge within 1 hour of collection, at 2000 g for 10 minutes. Plasma was collected and frozen on dry ice.
(§1) The concentration of (E)-2-[[3-Methoxy-4-(difluoromethoxy)phenyl-1-oxo-2-propenyl]amino]benzoic acid in plasma was determined using a validated LC-MS/MS method. A non-compartmental analysis was performed using WinNonLin software. Nominal doses and sampling times were used. Concentration values below the lower limit of quantitation were treated as zero for pharmacokinetic analysis.

[3] = Human Phase I clinical trial plasma pharmacokinetics, single 50 mg dose; assay type: in vivo, humans; conditions: 50 mg single oral dose
Experimental: Six healthy male volunteers in a Phase I clinical trial received a single dose of 50 mg (E)-2-[[3-Methoxy-4-(difluoromethoxy)phenyl-1-oxo-2-propenyl]amino] benzoic acid administered as powder-in-capsule. Blood was collected 10 minutes prior to dosing, and at 15 and 30 minutes and 1, 2, 3, 4, 6, 8, 12, 24, 36, 48, 72 and 96 hours post dose into K2EDTA tubes. Samples were spun in a refrigerated centrifuge within 1 hour of collection, at 2000 g for 10 minutes. Plasma was collected and frozen on dry ice.
as §1

[4] = Animal pharmacokinetic data, 91 days of dosing in rats; assay type: in vivo
[5] = Rat plasma and retina pharmacokinetics, single oral dose 50 mg/kg; assay type: in vivo, Sprague Dawley rats; conditions: single oral dose 50 mg/kg
Experimental: Male Sprague Dawley rats were administered a single dose of 50 mg/kg of (E)-2-[[3-Methoxy-4-(difluoromethoxy)phenyl-1-oxo-2-propenyl]amino]benzoic acid by oral gavage. The oral formulation was prepared in 1% carboxymethyl cellulose. Samples were collected from 3 animals/timepoint at 1, 2, 4, 8 and 24 hours after dosing. Whole blood was collected from the tail vein in conscious rats into polypropylene tubes containing heparin. Blood samples were centrifuged immediately (3000 rpm, for 10 minutes) and supernatant plasma removed and snap frozen in liquid N2. After blood collection, animals were euthanised with pentobarbitone (120 mg/kg), eyes were enucleated and retina were weighed, collected and snap frozen in liquid nitrogen. Blood was centrifuged at 3000 rpm for 10 mins at 4° C. and plasma was collected and snap frozen in liquid N2. Plasma and retinal concentrations of (E)-2-[[3-Methoxy-4-(difluoromethoxy)phenyl-1-oxo-2-propenyl]amino]benzoic acid were determined using a validated LC-MS/MS method. Cmax and Tmax was estimated using GraphPad prism software.

[6] = Human Phase I clinical study, steady state exposure at 50 mg after 14 days dosing; assay type: in vivo, humans; conditions: plasma, oral, Data from Phase I (after 14 days dosing)
Experimental: The corresponding data from the human Phase I clinical study is also included below, showing a much greater than predicted Cmax and AUC0-24 at 50 mg dosing.

[7] = Rabbit plasma and ocular tissue steady state pharmacokinetics, 8 daily oral doses; assay type: in vivo, Dutch Belted pigmented rabbits; conditions: for Tmax / Cmax: male, Dutch Belted
Experimental: Male Dutch Belted pigmented rabbits were administered a once daily dose of 50 or 100 mg/kg of (E)-2-[[3-Methoxy-4-(difluoromethoxy)phenyl-1-oxo-2-propenyl]amino]benzoic acid by oral gavage for 8 days. The oral formulation was prepared in 1% carboxymethyl cellulose. Blood was collected into tubes containing K2EDTA from two animals/dose/time point at 0 (predose), 1, 2, 4, 8, and 24 hours after the last dose on Study Day 8. Immediately following blood collection, animals were sacrificed via overdose of sodium pentobarbital. Blood samples were placed in a chilled cryorack until centrifuged to obtain plasma, which was stored at approximately -70° C. At the time of sacrifice for all animals, both eyes were enucleated, the aqueous humor was collected and discarded, and each eye was then flash frozen in liquid nitrogen for 15 to 20 seconds. The enucleated eye was placed on dry ice or stored at approximately -70° C. for at least two hours. Within approximately 5 days, the choroid-RPE, iris-ciliary body, retina and vitreous humor were collected from the right and left eye. The ocular tissues were rinsed with saline and blotted dry, as appropriate, weighed, and placed on dry ice. Sample analysis was performed using a qualified LC-MS/MS method to ascertain the concentration of (E)-2-[[3-Methoxy-4-(difluoromethoxy)phenyl-1-oxo-2-propenyl]amino]benzoic acid in each tissue matrix. Non-compartmental analysis (Gibaldi and Perrier, 1982) was applied to the individual and mean concentration data. Nominal doses and sampling times were used. Concentration values below the lower limit of quantitation were treated as zero for pharmacokinetic analysis. The plasma and ocular steady state non-compartmental pharmacokinetic parameters for repeated oral administration of 50 or 100 mg/kg on Day 8 are summarized in Table 2 and further below.

[8] = Dog plasma pharmacokinetic study, single daily dose for 28 days, plasma on first day of dosing; assay type: in vivo, Beagle dogs; conditions: beagle, read-out: elimination half-life (converted)
Experimental: Beagle dogs were administered a single daily dose of (E)-2-[[3-Methoxy-4-(difluoromethoxy)phenyl-1-oxo-2-propenyl]amino]benzoic at 25, 50 or 100 mg/kg for 28 consecutive days. Plasma was collected up to 24 hours post-dose on the first day of dosing.

[9] = Animal pharmacokinetic data, 91 days of dosing in dogs; assay type: in vivo
[10] = Tranilast plasma pharmacokinetics after 200 mg oral dosage (data from Charng et al.); assay type: in vivo, humans; conditions: human plasma
Experimental: Pharmacokinetic data for a comparator compound Tranilast following 200 mg oral dosage are also shown. See, e.g., Charng M, Ding P Y, Chuang M, et al. Pharmacokinetic Properties of Tranilast in Chinese People. Journal of Food and Drug Analysis, Vol. 10, No. 3, 2002, Pages 135-138. Tranilast is approved for use in an amount of 3 × 100 mg/day.

[11] = human plasma, cited from earlier work
[12] = Tranilast 200 mg, Day 1, single dose

half-life ([1]; 25 mg/kg): 12.9 h | half-life ([1]; 50 mg/kg): 13 h | half-life ([1]; 100 mg/kg): 11 h | Dose normalised AUC0-inf ([2]; Day 1, single dose): 1951 ng·h/mL | Dose normalised Cmax ([2]; Day 1, single dose): 164 ng/mL | Dose normalised AUC0-inf ([2]; Day 14, multiple dose): 18,874 ng·h/mL | Dose normalised Cmax ([2]; Day 14, multiple dose): 338 ng/mL | increase in Cmax after 14 days of dosing compared with a single dose ([2]; 200 mg, steady state vs single dose): two-fold increase | AUC(0-inf) ([2]; 200 mg, Day 1, single dose): 390 µg·h/mL | Cmax ([2]; 200 mg, Day 1, single dose): 32800 ng/mL | Tmax ([2]; 200 mg, Day 1, single dose): 3 h | half-life ([2]; 200 mg, Day 1, single dose): 9.6 h | AUC(0-inf) ([2]; 200 mg, Day 14, multiple dose): 3770 µg·h/mL | Cmax ([2]; 200 mg, Day 14, multiple dose): 67600 ng/mL | Tmax ([2]; 200 mg, Day 14, multiple dose): 2.5 h | half-life ([2]; 200 mg, Day 14, multiple dose): 23.2 h | Dose normalised AUC0-inf [3]: 2,256 ng·h/mL | Dose normalised Cmax [3]: 175 ng/mL | AUC(0-inf) ([3]; male): 113 µg·h/mL | Tmax ([3]; male): 2.5 h | Cmax ([3]; male, powder-in-capsule): 8740 ng/mL | half-life ([3]; male, read-out: T ½ (converted)): 24 h | accumulation with multiple dosing [4]: did not show accumulation | Cmax ([5]; male, Sprague Dawley, rat retina, read-out: estimated Cmax in retina): 792 ng/g | estimated maximum concentration in plasma ([5]; rat plasma): 35,134 ng/mL | time of estimated maximum concentration in plasma ([5]; rat plasma): 1 h | time of estimated maximal exposure in retina ([5]; rat retina): 4 h | detection in the plasma and retina at 24-hours post-dose ([5]; rat): still detected | Cmax [6]: 6560 ng/mL | AUC(0-t) ([6]; read-out: AUC0-24 hrs, ss): 74 µg·h/mL | Tmax ([7]; oral, rabbit ocular tissues, 50 and 100 mg/kg, read-out: Tmax for all analyzed ocular tissues): 1 to 4 h | Cmax ([7]; rabbit Choroid-RPE, 50 mg/kg/day oral, Day 8): 3320 ng/g | Tmax ([7]; rabbit Choroid-RPE, 50 mg/kg/day oral, Day 8, read-out: Tmax): 1 h | Cmax ([7]; rabbit Choroid-RPE, 100 mg/kg/day oral, Day 8): 12300 ng/g | Tmax ([7]; rabbit Choroid-RPE, 100 mg/kg/day oral, Day 8, read-out: Tmax): 2 h | Cmax ([7]; rabbit Iris Ciliary Body, 50 mg/kg/day oral, Day 8): 2510 ng/g | Tmax ([7]; rabbit Iris Ciliary Body, 50 mg/kg/day oral, Day 8, read-out: Tmax): 1 h | Cmax ([7]; rabbit Iris Ciliary Body, 100 mg/kg/day oral, Day 8): 8620 ng/g | Tmax ([7]; rabbit Iris Ciliary Body, 100 mg/kg/day oral, Day 8, read-out: Tmax): 2 h | Cmax ([7]; rabbit Plasma, 50 mg/kg/day oral, Day 8): 15200 ng/mL | Tmax ([7]; rabbit Plasma, 50 mg/kg/day oral, Day 8, read-out: Tmax): 1 h | Cmax ([7]; rabbit Plasma, 100 mg/kg/day oral, Day 8): 42000 ng/mL | Tmax ([7]; rabbit Plasma, 100 mg/kg/day oral, Day 8, read-out: Tmax): 2 h | Cmax ([7]; rabbit Retina, 50 mg/kg/day oral, Day 8): 623 ng/g | Tmax ([7]; rabbit Retina, 50 mg/kg/day oral, Day 8, read-out: Tmax): 1 h | Cmax ([7]; rabbit Retina, 100 mg/kg/day oral, Day 8): 2370 ng/g | Tmax ([7]; rabbit Retina, 100 mg/kg/day oral, Day 8, read-out: Tmax): 4 h | Cmax ([7]; rabbit Vitreous Humour, 50 mg/kg/day oral, Day 8): 3.3 ng/mL | Tmax ([7]; rabbit Vitreous Humour, 50 mg/kg/day oral, Day 8, read-out: Tmax): 1 h | Cmax ([7]; rabbit Vitreous Humour, 100 mg/kg/day oral, Day 8): 11.5 ng/mL | Tmax ([7]; rabbit Vitreous Humour, 100 mg/kg/day oral, Day 8, read-out: Tmax): 4 h | detection in plasma or ocular tissue by 24 hours-post dose ([7]; rabbits, either dose (50 or 100 mg/kg)): could not be detected | half-life ([8]; 25 mg/kg): 4.3 h | half-life ([8]; 50 mg/kg): 4.9 h | half-life ([8]; 100 mg/kg): 4.2 h | accumulation with multiple dosing [9]: did not show accumulation
Structure (SMILES): COc1cc(/C=C/C(=O)Nc2ccccc2C(=O)O)ccc1OC(F)F [(E)-2-[[3-methoxy-4-(difluoromethoxy)phenyl-1-oxo-2-propenyl]amino]benzoic acid]

Dose normalised AUC0-inf ([10]; Tranilast 200 mg oral): 2,060 ng·h/mL | Dose normalised Cmax ([10]; Tranilast 200 mg oral): 210 ng/mL | Dose normalised AUC0-inf [10, 12]: 2,060 ng·h/mL | Dose normalised Cmax [10, 12]: 210 ng/mL
Structure (SMILES): COc1ccc(/C=C/C(=O)Nc2ccccc2C(=O)O)cc1OC [Tranilast]
AUC(0-inf) ([11]; Tranilast 200 mg oral): 412,000 ng·h/mL | Cmax ([11]; Tranilast 200 mg oral): 42,000 ng/mL | T ½ ([11]; Tranilast 200 mg oral): 7.5 h | Tmax ([11]; Tranilast 200 mg oral): 2.8 h | AUC(0-inf) [11, 12]: 412,000 ng-h/mL | Cmax [11, 12]: 42,000 ng/mL | T ½ [11, 12]: 7.5 h | Tmax [11, 12]: 2.8 h
